# Measurements: patent publication US8815935B2, “Inhibitors of protein prenyltransferases” (The Regents of the University of California, priority 2008, dated 2014)
# pIC50: −log10 of the molar value.
# Biological target: T1, GGTase-I (Rattus norvegicus, UniProt P53610+Q04631)
# T1 construct: purchased JENA BIOSCIENCE
# Assay: In vitro GGTase-I enzyme assay (IC50, kinetics)
# Assay type: biochemical
# Conditions: Tables 3, 5, 7; read-out: In vitro (enzyme assay) IC50, GGTase I
# Description: The GGTase-I assay was carried out using RhoA as a substrate protein, GGTase-I (JENA Bioscience) and [3H]geranylgeranyl pyrophosphate. Incubation was for 30 min at 37° C. GGTase-II (or RabGGTase) assay was carried out using YPTI as a substrate protein, GGTase-II (Calbiochem, San Diego, Calif.) plus REP1 (Calbiochem) and [3H]geranylgeranyl pyrophosphate. Incubation was for 30 min at 37° C. FIGS. 20D-20F show the three dimensional structure of GGTase I (D), FTsse (E) and GGTase II (F) which can be obtained from X-ray diffraction studies of protein crystals.
# GGTase-I and FTase activities were determined by following the incorporation of radiolabeled isoprenoid [^3H]-geranylgeranyl or [^3H]-farnesyl into substrate proteins. FTase or GGTase-I (50 nM) were used to initiate reactions containing 0.4 μM of [^3H]-FPP or 0.5 μM of [^3H]-GGPP and 2 μM of MBP-tagged substrates (K-Ras4B for FTase; RhoA for GGTase-I) in 20 μl of buffer {50 mM Tris-HCl (pH 7.5), 10 mM MgCl2, […] and 5 mM DTT}. Inhibitors were added at the indicated concentrations. The final DMSO concentration was 2.5% for all samples.
# Reactions were carried out for 10 min at 30° C. The reaction mixture was spotted onto a filter paper, treated with 10% trichloroacetic acid (TCA) followed by ethanol and acetone washing. The filter was counted using a scintillation counter. Kinetic assays in which the GGPP concentration was varied employed fixed concentrations of GGTase-I and RhoA, and reactions were carried out for 5 min. Similarly, fixed concentrations of GGTase-I and GGPP were used when the amount of RhoA was varied.
row,pIC50,SMILES
1,4.48,CC(C)C[C@H](NC(=O)C1=CC[C@@H](c2cccc(Br)c2)N(S(=O)(=O)c2ccc(F)cc2)C1c1cccc(Cl)c1)C(N)=O (some centres unmarked) [P61-C11]
2,5.16,CC(C)C[C@H](NC(=O)C1=CC[C@@H](c2cccc(Br)c2)N(S(=O)(=O)c2ccc(F)cc2)[C@H]1c1cccc(Cl)c1)C(N)=O [P61-D03]
3,5.89,NC(=O)[C@H](Cc1ccccc1)NC(=O)C1=CC[C@@H](c2cccc(Br)c2)N(S(=O)(=O)c2ccc(Cl)cc2)C1c1cccc(Cl)c1 (some centres unmarked) [P61-D04]
4,< 4.70,NC(=O)[C@H](Cc1ccccc1)NC(=O)C1=CC[C@@H](c2cccc(Br)c2)N(S(=O)(=O)c2ccc(Cl)cc2)C1c1cccc(Cl)c1 (some centres unmarked) [P61-D05]
5,< 4.30,CC(C)(C)[C@@H]1C=C(C(=O)N[C@@H](Cc2ccccc2)C(N)=O)[C@H](c2ccc(Cl)c(Cl)c2)N1S(=O)(=O)c1c(Cl)cccc1Cl [P61-D09]
6,< 4.30,CC(C)(C)[C@@H]1C=C(C(=O)N[C@@H](Cc2ccccc2)C(N)=O)[C@H](c2ccc(Cl)c(Cl)c2)N1S(=O)(=O)C(C)(C)C [P61-D11]
7,5.57,CC(C)(C)[C@@H]1C=C(C(=O)N[C@@H](Cc2ccccc2)C(N)=O)[C@H](c2ccc(Cl)c(Cl)c2)N1S(=O)(=O)C(C)(C)C [P61-E02]

# Same assay, conditions: Tables 8-15; no unit printed there (Table 7 head: μM unless otherwise specified); read-out: In vitro (GGTase I IC50)
row,IC50,SMILES
1,32.9 µM,CC(C)C[C@H](NC(=O)C1=CC[C@@H](c2cccc(Br)c2)N(S(=O)(=O)c2ccc(F)cc2)C1c1cccc(Cl)c1)C(N)=O (some centres unmarked) [P61-C11]
2,6.9 µM,CC(C)C[C@H](NC(=O)C1=CC[C@@H](c2cccc(Br)c2)N(S(=O)(=O)c2ccc(F)cc2)[C@H]1c1cccc(Cl)c1)C(N)=O [P61-D03]
3,1.3 µM,NC(=O)[C@H](Cc1ccccc1)NC(=O)C1=CC[C@@H](c2cccc(Br)c2)N(S(=O)(=O)c2ccc(Cl)cc2)C1c1cccc(Cl)c1 (some centres unmarked) [P61-D04]
4,> 20 µM,NC(=O)[C@H](Cc1ccccc1)NC(=O)C1=CC[C@@H](c2cccc(Br)c2)N(S(=O)(=O)c2ccc(Cl)cc2)C1c1cccc(Cl)c1 (some centres unmarked) [P61-D05]
5,> 50 µM,CC(C)(C)[C@@H]1C=C(C(=O)N[C@@H](Cc2ccccc2)C(N)=O)[C@H](c2ccc(Cl)c(Cl)c2)N1S(=O)(=O)c1c(Cl)cccc1Cl [P61-D09]
6,> 50 µM,CC(C)(C)[C@@H]1C=C(C(=O)N[C@@H](Cc2ccccc2)C(N)=O)[C@H](c2ccc(Cl)c(Cl)c2)N1S(=O)(=O)C(C)(C)C [P61-D11]
7,2.7 µM,CC(C)(C)[C@@H]1C=C(C(=O)N[C@@H](Cc2ccccc2)C(N)=O)[C@H](c2ccc(Cl)c(Cl)c2)N1S(=O)(=O)C(C)(C)C [P61-E02]

# System: Jurkat cells
# Assay: Jurkat cell growth inhibition
# Assay type: cell-based, human
# Conditions: Homo sapiens, Jurkat, Tables 4, 6, 7; read-out: Jurkat cell GI50
# Description: In Table 4 in cell GI50 values for the growth inhibition of Jurkat cells are reported. The GI50 value is the concentration of a test compound needed to produce 50% growth inhibition in the cell type listed. In Table 4 the isolated yield of each synthetic step for the synthesis of corresponding compounds are also reported.
# Panc-1 cells (Pancreatic cancer cell line) and Jurkat cells (T-cell leukemia) were treated with 12.5 μM of P5-H6 or 12.5 μM of mP5-H6a for 72 hours. The cell number was counted as described in Example 5.
# (§1) Cell viability was determined by Cell Counting Kit-8 (CCK-8, Dojindo, Kumamoto, Japan) as described previously (31). Cell viability was calculated relative to the DMSO control. Cell cycle profile was analyzed by flow cytometry as described previously (32).
row,GI50,SMILES
1,1.76 µM,CC(C)C[C@H](NC(=O)C1=CC[C@@H](c2cccc(Br)c2)N(S(=O)(=O)c2ccc(F)cc2)C1c1cccc(Cl)c1)C(N)=O (some centres unmarked) [P61-C11]
2,0.32 µM,CC(C)C[C@H](NC(=O)C1=CC[C@@H](c2cccc(Br)c2)N(S(=O)(=O)c2ccc(F)cc2)[C@H]1c1cccc(Cl)c1)C(N)=O [P61-D03]
3,4.86 µM,NC(=O)[C@H](Cc1ccccc1)NC(=O)C1=CC[C@@H](c2cccc(Br)c2)N(S(=O)(=O)c2ccc(Cl)cc2)C1c1cccc(Cl)c1 (some centres unmarked) [P61-D04]
4,4.91 µM,CC(C)(C)[C@@H]1C=C(C(=O)N[C@@H](Cc2ccccc2)C(N)=O)[C@H](c2ccc(Cl)c(Cl)c2)N1S(=O)(=O)c1c(Cl)cccc1Cl [P61-D09]
5,5.91 µM,CC(C)(C)[C@@H]1C=C(C(=O)N[C@@H](Cc2ccccc2)C(N)=O)[C@H](c2ccc(Cl)c(Cl)c2)N1S(=O)(=O)C(C)(C)C [P61-D11]

# Same assay, conditions: Homo sapiens, Jurkat, Tables 8-15; no unit printed there; read-out: Jurkat GI50
row,GI50,SMILES
1,1.76 µM,CC(C)C[C@H](NC(=O)C1=CC[C@@H](c2cccc(Br)c2)N(S(=O)(=O)c2ccc(F)cc2)C1c1cccc(Cl)c1)C(N)=O (some centres unmarked) [P61-C11]
2,0.32 µM,CC(C)C[C@H](NC(=O)C1=CC[C@@H](c2cccc(Br)c2)N(S(=O)(=O)c2ccc(F)cc2)[C@H]1c1cccc(Cl)c1)C(N)=O [P61-D03]
3,4.86 µM,NC(=O)[C@H](Cc1ccccc1)NC(=O)C1=CC[C@@H](c2cccc(Br)c2)N(S(=O)(=O)c2ccc(Cl)cc2)C1c1cccc(Cl)c1 (some centres unmarked) [P61-D04]
4,4.91 µM,CC(C)(C)[C@@H]1C=C(C(=O)N[C@@H](Cc2ccccc2)C(N)=O)[C@H](c2ccc(Cl)c(Cl)c2)N1S(=O)(=O)c1c(Cl)cccc1Cl [P61-D09]
5,5.91 µM,CC(C)(C)[C@@H]1C=C(C(=O)N[C@@H](Cc2ccccc2)C(N)=O)[C@H](c2ccc(Cl)c(Cl)c2)N1S(=O)(=O)C(C)(C)C [P61-D11]

# Same assay, conditions: Tables 4, 6, 7; read-out: Jurkat cell GI50
row,GI50,SMILES
1,3.57 µM,NC(=O)[C@H](Cc1ccccc1)NC(=O)C1=CC[C@@H](c2cccc(Br)c2)N(S(=O)(=O)c2ccc(Cl)cc2)C1c1cccc(Cl)c1 (some centres unmarked) [P61-D05]
2,4.57 µM,CC(C)(C)[C@@H]1C=C(C(=O)N[C@@H](Cc2ccccc2)C(N)=O)[C@H](c2ccc(Cl)c(Cl)c2)N1S(=O)(=O)C(C)(C)C [P61-E02]

# Same assay, conditions: Tables 8-15; no unit printed there; listed as P61D5; read-out: Jurkat GI50
row,GI50,SMILES
1,3.57 µM,NC(=O)[C@H](Cc1ccccc1)NC(=O)C1=CC[C@@H](c2cccc(Br)c2)N(S(=O)(=O)c2ccc(Cl)cc2)C1c1cccc(Cl)c1 (some centres unmarked) [P61-D05]

# Same assay, conditions: Tables 8-15; no unit printed there; listed as P61E2; read-out: Jurkat GI50
row,GI50,SMILES
1,4.57 µM,CC(C)(C)[C@@H]1C=C(C(=O)N[C@@H](Cc2ccccc2)C(N)=O)[C@H](c2ccc(Cl)c(Cl)c2)N1S(=O)(=O)C(C)(C)C [P61-E02]

# System: K562 cells
# Assay: K562 cell growth inhibition
# Assay type: cell-based, human
# Conditions: Homo sapiens, K562, Tables 8-15; no unit printed there
# Description: K562 cells are a cell line of human erythroleukemia cells. The K562 cells were treated with P3-E5, P5-H6 or GGTI-298 (a known GGTI compound illustrated in FIG. 27) for 72 hours and then cell number was counted using cell counting kit-8 (Dojindo, Gaithersburg, Md.). Cell viability relative to the DMSO control and the known GGTI compound is plotted in FIG. 23.
# as §1
row,GI50,SMILES
1,10.2 µM,CC(C)C[C@H](NC(=O)C1=CC[C@@H](c2cccc(Br)c2)N(S(=O)(=O)c2ccc(F)cc2)C1c1cccc(Cl)c1)C(N)=O (some centres unmarked) [P61-C11]
2,1.7 µM,CC(C)C[C@H](NC(=O)C1=CC[C@@H](c2cccc(Br)c2)N(S(=O)(=O)c2ccc(F)cc2)[C@H]1c1cccc(Cl)c1)C(N)=O [P61-D03]
3,7.69 µM,NC(=O)[C@H](Cc1ccccc1)NC(=O)C1=CC[C@@H](c2cccc(Br)c2)N(S(=O)(=O)c2ccc(Cl)cc2)C1c1cccc(Cl)c1 (some centres unmarked) [P61-D04]
4,3.63 µM,CC(C)(C)[C@@H]1C=C(C(=O)N[C@@H](Cc2ccccc2)C(N)=O)[C@H](c2ccc(Cl)c(Cl)c2)N1S(=O)(=O)c1c(Cl)cccc1Cl [P61-D09]
5,5.9 µM,CC(C)(C)[C@@H]1C=C(C(=O)N[C@@H](Cc2ccccc2)C(N)=O)[C@H](c2ccc(Cl)c(Cl)c2)N1S(=O)(=O)C(C)(C)C [P61-D11]

# Same assay, conditions: Tables 8-15; no unit printed there; listed as P61D5
row,GI50,SMILES
1,10.3 µM,NC(=O)[C@H](Cc1ccccc1)NC(=O)C1=CC[C@@H](c2cccc(Br)c2)N(S(=O)(=O)c2ccc(Cl)cc2)C1c1cccc(Cl)c1 (some centres unmarked) [P61-D05]

# Same assay, conditions: Tables 8-15; no unit printed there; listed as P61E2
row,GI50,SMILES
1,4.22 µM,CC(C)(C)[C@@H]1C=C(C(=O)N[C@@H](Cc2ccccc2)C(N)=O)[C@H](c2ccc(Cl)c(Cl)c2)N1S(=O)(=O)C(C)(C)C [P61-E02]
